Assay results reported in a compilation of properties of binary mixtures (doi:10.1016/j.molliq.2020.113163).

Assay: xn = mol fraction of the nth substance listed
Details: 101 kPa, x1 = 0.8

Structure (SMILES) | electrical conductivity (328.15 K) | viscosity (328.15 K) | electrical conductivity (348.15 K) | viscosity (348.15 K) | electrical conductivity (358.15 K) | viscosity (358.15 K) | electrical conductivity (338.15 K) | viscosity (338.15 K) | electrical conductivity (368.15 K) | viscosity (368.15 K)
C1CN=C2CCCN2C1 + O=S(=O)([N-]S(=O)(=O)C(F)(F)F)C(F)(F)F.[Li+] | 0.0252 S/m | 566 mPa·s | 0.0633 S/m | 116.3 mPa·s | 0.0966 S/m | 63.5 mPa·s | – | – | – | –
C1CCC2=NCCCN2CC1 + O=S(=O)([N-]S(=O)(=O)C(F)(F)F)C(F)(F)F.[Li+] | – | – | – | – | 0.0256 S/m | 160.9 mPa·s | 0.0047 S/m | 977 mPa·s | 0.0438 S/m | 82.4 mPa·s
